Data reported in US8912121B2, “Herbicidal compositions comprising 4-amino-3-chloro-5-fluoro-6-(4-chloro-2-fluoro-3-methoxyphenyl)pyridine-2-carboxylic acid or a derivative thereof and certain PS II inhibitors” (Dow Agrosciences LLC, priority 2012, dated 2014).

Tests used:
[1] = test system: IPOHE (Ipomoea hederacea, ivyleaf morningglory); experiment: Postemergence foliar-applied mixtures, direct seeded rice, greenhouse; assay type: in vivo, Ipomoea hederacea Jacq.; details: post-emergence
Excerpt: (§1) Seeds or nutlets of the desired test plant species were planted in a soil matrix prepared by mixing a loam or sandy loam soil (e.g., 28.6 percent silt, 18.8 percent clay, and 52.6 percent sand, with a pH of about 5.8 and an organic matter content of about 1.8 percent) and calcareous grit in an 80 to 20 ratio. The soil matrix was contained in plastic pots with a volume of 1 quart and a surface area of 83.6 square centimeters (cm^2). When required to ensure good germination and healthy plants, a fungicide treatment and/or other chemical or physical treatment was applied. The plants were grown for 8-22 days in a greenhouse with an approximate 14 h photoperiod which was maintained at about 29° C. during the day and 26° C. during the night. Nutrients (Peters Excel® 15-5-15 5-Ca 2-Mg and iron chelate) were applied in the irrigation solution as needed and water was added on a regular basis. Supplemental lighting was provided with overhead metal halide 1000-Watt lamps as necessary. The plants were employed for testing when they reached the first through fourth true leaf stage.
(§2) Treatments consisted of the acid or esters of 4-amino-3-chloro-5-fluoro-6-(4-chloro-2-fluoro-3-methoxy-phenyl) pyridine-2-carboxylic acid (Compound A), each formulated as an SC (suspension concentrate), and various herbicidal components alone and in combination. Forms of compound A were applied on an acid equivalent basis.
(§3) Other herbicidal components were applied on an active ingredient basis and included Photosystem II (PSII)-inhibiting herbicides propanil formulated as Stam® M4 EC, bentazon-sodium formulated as Basagran®, atrazine formulated as Atrazine 90 WDG, bromoxynil octanoate ester formulated as Buctril®, simetryne (technical grade material), simazine formulated as Princep® Caliber 90, ioxynil (technical grade material), cyanazine (technical grade material), and hexazinone (technical grade material).
(§4) Treatment requirements were calculated based upon the rates being tested, the concentration of active ingredient or acid equivalent in the formulation, and a 12 mL application volume at a rate of 187 L/ha.
(§5) For treatments comprised of formulated compounds, measured amounts of compounds were placed individually in 25 mL glass vials and diluted in a volume of 1.25% (v/v) Agri-Dex® crop oil concentrated to obtain 12× stock solutions. […] Application solutions were prepared by adding an appropriate amount of each stock solution (e.g., 1 mL) and diluted to the appropriate final concentrations with the addition of 10 mL of an aqueous mixture of 1.25% (v/v) crop oil concentrate so that the final spray solutions contained 1.25+/−0.05% (v/v) crop oil concentrate.
(§6) For treatments comprised of technical compounds, weighed amounts can be placed individually in 25 mL glass vials and dissolved in a volume of 97:3 v/v acetone/DMSO to obtain 12× stock solutions. […] Application solutions can be prepared by adding an appropriate amount of each stock solution (e.g., 1 mL) and diluted to the appropriate final concentrations with the addition of 10 mL of an aqueous mixture of 1.5% (v/v) crop oil concentrate so that the final spray solutions contain 1.25% (v/v) crop oil concentrate. When technical materials are used, the concentrated stock solutions can be added to the spray solutions so that the final acetone and DMSO concentrations of the application solutions are 16.2% and 0.5%, respectively.
(§7) For treatments comprised of formulated and technical compounds, weighed amounts of the technical materials were placed individually in 25 mL glass vials and dissolved in a volume of 97:3 v/v acetone/DMSO to obtain 12× stock solutions, and measured amounts of the formulated compounds were placed individually in 25 mL glass vials and diluted in a volume of 1.5% (v/v) crop oil concentrate or water to obtain 12× stock solutions. […]

[2] = test system: ECHCG (Echinochloa crusgalli, barnyardgrass); experiment: as above; assay type: in vivo, Echinochloa crusgalli (L.) Beauv.; details: 625 g ai/ha; 21 DAA
Description: as §1, with “When required to ensure good germination and healthy plants, a fungicide treatment and/or other chemical or physical treatment was applied.” left out
as §2, §3, §5, §6
For treatments comprised of formulated and technical compounds, weighed amounts of the technical materials were placed individually in 25 mL glass vials and dissolved in a volume of 97:3 v/v acetone/DMSO to obtain 12× stock solutions, and measured amounts of the formulated compounds were placed individually in 25 mL glass vials and diluted in a volume of 1.5% (v/v) crop oil concentrate or water to obtain 12× stock solutions. […] Application solutions were prepared by adding an appropriate amount of each stock solution (eg, 1 mL) and diluted to the appropriate final concentrations with the addition of an appropriate amount of an aqueous mixture of 1.5% (v/v) crop oil concentrate so that the final spray solutions contained 1.25% (v/v) crop oil concentrate.

[3] = test system: ECHCO (Echinochloa colona, junglerice); experiment: as above; assay type: in vivo, Echinochloa colona (L.) Link; details: 21 DAA
Excerpt: as §1, §2, §3, §4, §5, §6, §7

[4] = test system: XANST (Xanthium strumarium, common cocklebur); experiment: Pre-emergence soil-applied mixtures, greenhouse; assay type: in vivo, Xanthium strumarium L.; details: Terbuthylazine 1000 g ai/ha; 27 DAA
Excerpt: (§8) Seeds or nutlets of the desired test plant species were planted in a soil matrix prepared by mixing a loam soil (32 percent silt, 23 percent clay, and 45 percent sand, with a pH of about 6.5 and an organic matter content of about 1.9 percent) and calcareous grit in an 80 to 20 ratio. The soil matrix was contained in plastic pots with a volume of 1 quart and a surface area of 83.6 square centimeters (cm^2).
(§9) Treatments consisted of the benzyl ester of 4-amino-3-chloro-5-fluoro-6-(4-chloro-2-fluoro-3-methoxy-phenyl)pyridine-2-carboxylic acid (compound A) formulated as an SC (suspension concentrate) and various herbicidal components alone and in combination. Forms of compound A were applied on an acid equivalent basis.
(§10) Other herbicidal components were applied on an acid equivalent or active ingredient basis and included the PSII-inhibiting herbicides, atrazine formulated as Atrazine® 90WDG, metribuzin formulated as Metribuzin 75DF, simazine formulated as Princep Caliber 90, tebuthiuron formulated as Spike 80DF, cyanazine (technical grade material), hexazinone (technical grade material), linuron (technical grade material), terbuthylazine (technical grade material), and diuron formulated as Diuron 4L.
as §4
as §5, with “oil concentrate (COC)” for “oil concentrated”, “(v/v) COC” for “(v/v) crop oil concentrate”, “contained 1.25%” for “contained 1.25+/−0.05%”, “(v/v) COC.” for “(v/v) crop oil concentrate.”
as §6, with “97:3 (v/v)” for “97:3 v/v”, “(v/v) COC” for “(v/v) crop oil concentrate”, “(v/v) COC.” for “(v/v) crop oil concentrate.”
(§11) For treatments comprised of formulated and technical compounds, weighed amounts of the technical materials can be placed individually in 25 mL glass vials and dissolved in a volume of 97:3 (v/v) acetone/DMSO to obtain 12× stock solutions, and measured amounts of the formulated compounds can be placed individually in 25 mL glass vials and diluted in a volume of 1.5% (v/v) COC or water to obtain 12× stock solutions. […] Application solutions can be prepared by adding an appropriate amount of each stock solution (e.g., 1 mL) and diluted to the appropriate final concentrations with the addition of an appropriate amount of an aqueous mixture of 1.5% (v/v) COC so that the final spray solutions contain 1.25% (v/v) COC. As required, additional water and/or 97:3 (v/v) acetone/DMSO can be added to individual application solutions so that the final acetone and DMSO concentrations of the application solutions being compared are 8.1% and 0.25%, respectively.
(§12) All stock solutions and applications solutions were visually inspected for compound compatibility prior to application. Spray solutions were applied to the soil with an overhead Mandel track sprayer equipped with a 8002E nozzles calibrated to deliver 187 L/ha over an application area of 0.503 m^2 at a spray height of 18 inches (46 cm) above average pot height. […]

[5] = test system: BRAPP (Brachiaria platyphylla, broadleaf signalgrass); experiment: Pre-emergence soil-applied mixtures, greenhouse; assay type: in vivo, Brachiaria platyphylla (Groseb.) Nash; details: 27 DAA
Excerpt: as §8, §9, §10, §4
as §5, with “oil concentrate (COC)” for “oil concentrated”, “(v/v) COC” for “(v/v) crop oil concentrate”, “contained 1.25%” for “contained 1.25+/−0.05%”, “(v/v) COC.” for “(v/v) crop oil concentrate.”
as §6, with “97:3 (v/v)” for “97:3 v/v”, “(v/v) COC” for “(v/v) crop oil concentrate”, “(v/v) COC.” for “(v/v) crop oil concentrate.”
as §11, §12

N#Cc1cc(I)c(O)c(I)c1 [Ioxynil, 4-hydroxy-3,5-diiodobenzonitrile, reference compound]
pest or weed control at 300 g/ha ([1]; 480 h, read-out: Visual Weed Control (%) Obs, 300 g ai/ha, 20 DAA): 50%

CN(C)c1nc(=O)n(C2CCCCC2)c(=O)n1C [Hexazinone, 3-cyclohexyl-6-(dimethylamino)-1-methyl-1,3,5-triazine-2,4(1H,3H)-dione, reference compound]
Visual Weed Control (%) Obs [2]: 20%
Visual Weed Control (%) Obs ([3]; 625 g ai/ha): 25%
Visual Weed Control (%) Obs ([3]; 1250 g ai/ha): 55%
pest or weed control at 625 g/ha ([1]; 504 h, 625 g ai/ha, 21 DAA, read-out: Visual Weed Control (%) Obs): 80%

CCNc1nc(Cl)nc(NC(C)(C)C)n1 [Terbuthylazine, 6-chloro-N-(1,1-dimethylethyl)-N′-ethyl-1,3,5-triazine-2,4-diamine, reference compound]
Visual Weed Control (%) - 27 DAA XANST Obs [4]: 45%

CON(C)C(=O)Nc1ccc(Cl)c(Cl)c1 [Linuron, N′-(3,4-dichlorophenyl)-N-methoxy-N-methylurea]
Visual Weed Control (%) - 27 DAA BRAPP Obs ([5]; Linuron 620 g ai/ha): 0%

CCNc1nc(Cl)nc(NC(C)(C)C#N)n1 [Cyanazine, 2-[[4-chloro-6-(ethylamino)-1,3,5-triazin-2-yl]amino]-2-methylpropanenitrile]
pest or weed control at 275 g/ha ([1]; 480 h, read-out: Visual Weed Control (%) Obs, 275 g ai/ha, 20 DAA): 50%
Visual Weed Control (%) - 27 DAA BRAPP Obs ([5]; Cyanazine 170 g ai/ha): 0%
Visual Weed Control (%) - 27 DAA BRAPP Obs ([5]; Cyanazine 440 g ai/ha): 15%
Visual Weed Control (%) - 27 DAA BRAPP Obs ([5]; Cyanazine 880 g ai/ha): 10%
